From US4241184A, “Secondary alcohol dehydrogenase enzyme and use thereof” (priority 1979, dated 1980)
Entries after “also recorded” stand apart in the source; their conditions may differ. Like-named read-outs stand apart in the source and are kept apart here.

Columns and labels:
[1] = tested on: P(40) particulate fraction of Methylosinus sp. (CRL-15, NRRL B-11,202); test: Effect of inhibitors on propylene epoxidation and methane hydroxylation by P(40) fraction; type: biochemical; settings: inhibitor 10^-3 M
Method: The oxidation of methane and propylene by particulate [(P)40 and(P)80] fractions and soluble [S(80)] fraction was measured at 30° C. by estimating the production of methanol and propylene oxide, respectively. The reaction mixtures contained in 1.0 ml: 150 mM potassium phosphate buffer, pH 7.0 containing 5 mM MgCl2, 0.6 ml; 10 μmoles NADH, and cellular fraction.
Reaction mixtures were contained in 10 ml vials at 4° C. Vials were sealed with rubber caps. The gaseous phase in the vials was removed using vacuum and then was replaced with a gas mixture of methane or propylene and oxygen at a 1:1, v/v ratio. Oxidation of other gaseous n-alkanes and n-alkenes was examined as described above. For liquid substrates, 10 μl of substrate was used directly. Vials were then incubated at 30° C. on a rotary shaker at 200 RPM.
It has been reported that the oxidation of methane by cell suspensions of methane-utilizing bacteria was inhibited by various metal-binding or metal-chelating agents (Patel et al., J. Bacteriol. 126: 1017-1019 (1976)). […] (CRL-15, NRRL B-11,202) was examined.

[2] = tested on: Methylosinus trichosporium OB3b (NRRL B-11,196); test: Effect of inhibitors on epoxidation of propylene and hydroxylation of methane, cell-containing enzyme preparation; type: cell-based
[3] = tested on: Methylococcus capsulatus (CRL Ml, NRRL B-11,219); test: as above; type: cell-based; settings: for inhibition at 1000 µM: Methylococcus capsulatus
[4] = tested on: Methylobacterium organophilum (CRL 26, NRRL B-11,222); test: as above; type: cell-based
[5] = tested on: methanol-grown Methylococcus capsulatus CRL M1 (NRRL B-11,219); test: Effect of metal-chelating agents and other inhibitors on production of 2-butanone by cell suspensions; type: cell-based
[6] = tested on: secondary alcohol dehydrogenase (SADH); test: Purified secondary alcohol dehydrogenase activity (formation of reduced NAD); type: biochemical, Pseudomonas sp. ATCC 21439
Method: Secondary alcohol dehydrogenase (SADH) from an obligate methanol utilizer, Pseudomonas sp. ATCC 21439 was purified as follows. […] 0.05 M sodium phosphate buffer, pH 7.0 with 0.5 mM dithiothretol (buffer A) and were disrupted sonically (5×1 min.). The crude extract was separated by centrifugation. The crude extract was heat-treated at 50° C. in a water bath for 10 minutes. The resulting precipitate was removed by centrifugation. To the supernatant solution, 25 ml of protamine sulfate solution (2% solution in 0.1 M Tris base) was added dropwise with continuous stirring. After standing for 30 minutes, the extract was centrifuged. The supernatant solution was fractionated with solid ammonium sulfate. The material precipitating between 30 and 60% saturation was collected and was dialized overnight against buffer A. The The dialized material was applied to a DEAE-cellulose column (3 cm by 35 cm) that had been equilibrated with buffer A. The secondary alcohol dehydrogenase activity was eluted in the void volume. This DEAE-cellulose eluate was concentrated by ammonium sulfate fractionation. Material precipitating between 30 and 50% ammonium sulfate saturation was collected by centrifugation and dialyzed overnight against A. This fraction was further washed and filtered through an Amicon unit with XM 50 membrane. The concentrated fraction (6 ml) inside the Amicon unit was applied to an Affi-Gel Blue column (0.8 cm×18 cm) which had been equilibrated with buffer A for affinity chromatography. The column was washed overnight with buffer A (0.18 ml./min.) and then was eluted with buffer A containing 5 mM NAD. Each 1 ml. fraction was collected.
The purified secondary alcohol dehydrogenase enzyme (SADH) may be used directly for converting C3 -C6 secondary alcohols to the corresponding methyl ketones by the procedures described above; however, a source of NAD^+ must be added to the reaction medium. One can determine the NAD-linked secondary alcohol dehydrogenase activity with a fluorescence spectrophotometer (Perkin Elmer, Model MPF 44A) by following the formation of reduced NAD (Ex 340 nm, Em 460 nm). The assay system (3 ml.) will typically contain: sodium phosphate buffer pH 7.0, 150 μmol; NAD 1.0 μmol; a given amount of enzyme preparation; and 20 μmol secondary alcohol. The reaction is started by the addition of secondary alcohol. One unit of SADH enzyme activity represents the reduction of one nmole NAD per minute.
The effect of metal-chelating agents and thioreagents on the activity of the purified SADH enzyme were studied. […] The possibility of ethanol or n-propanol as an inhibitor was studied.

[7] = tested on: secondary alcohol dehydrogenase; test: Purified yeast secondary alcohol dehydrogenase: substrates, electron acceptors, inhibitors, stoichiometry; type: biochemical, Pichia sp. NRRL Y-11,328
Method: Large scale cultures of Pichia sp. NRRL Y-11,328 were grown with aeration at 30° C. in a 14-liter New Brunswick f fermentor in a mineral salt medium containing methanol (0.4%, v/v) as the sole carbon source. The cells (200 g., wet weight) were suspended in […] sodium phosphate buffer, pH 7.0, containing 1 mM dithiothreitol (buffer A), and crude extracts were prepared as described previously. To the crude extracts, 18 ml. of protamine sulfate solution [2% solution in 0.1 M tris (hydroxymethyl) aminomethane (tris) base] was added dropwise with continuous stirring. After standing for 30 min., the extracts were centrifuged at 20,000×g. for 60 min. The supernatant solution was fractionated with solid ammonium sulfate. Extracts were brought to 50% of saturation with respect to ammonium sulfate by addition of 313 g. of the salt per liter of extract. Precipitated proteins was removed by centrifugation, and 137 g. of ammonium sulfate was added per liter of the supernatant liquid to bring it to 70% of saturation. Material precipitating between 50 and 70% of saturation was collected by centrifugation and dissolved in buffer A. This preparation was dialyzed overnight against buffer A, and the dialyzed material was applied to a DEAE-cellulose column (5×40 cm) that had been equilibrated with buffer A. The sample was washed with 200 ml. of buffer A and eluted with 2 liters of buffer A that contained NaCl in a linear gradient running from a concentration of 0 to 0.5 M. Fractions of 15 ml. were collected. Fractions containing secondary alcohol dehydrogenase activity were pooled and were termed DEAE-cellulose eluate. The DEAE-cellulose eluate was concentrated by ammonium sulfate fractionation.
Secondary alcohol dehydrogenase activity was measured spectrophotometrically at 340 nm with a NAD^+ as an electron acceptor. The reaction mixture, in a total 3.0 ml., contained 50 mM phosphate buffer, pH 8.0, 5μ moles NAD^+, crude extracts, and subtrate. The reactions were started by addition of 100 μl of 0.1 M substrate and the rate of NAD^+ reduction was measured. Protein concentration was determined by the method of Lowry et al.
The substrate specificity of the purified secondary alcohol dehydrogenase was examined spectrophotometrically.

[8] = tested on: cell-free particulate fractions derived from the methylotrophic microorganisms; test: Conversion of C3-C6 n-alkanes to sec. alcohols by cell-free particulate fractions: inhibitors and electron donors; type: biochemical
From the text: The conditions for preparing the cell suspensions or the cell-free particulate fractions from methane-grown methylotroph microorganisms is the same as described above. […] Tables XXV and XXVI show the conversion of C3 -C6 n-alkanes to the corresponding secondary alcohols using cell suspensions and cell-free particulate fractions, respectively, of methane-grown methylotroph microorganisms.

[9] = tested on: cell suspensions of C1 -utilizers; test: Optimal conditions and inhibition of 2-butanone production from 2-butanol by cell suspensions; type: cell-based
From the text: The following summarizes tests conducted on the optimal conditions for the production of methyl ketones from C3 -C6 sec. alcohols.

[10] = tested on: Methylobacter vinelandii (CRL M5Y NRRL B-11,218); test: Microbiological oxidation of cyclic hydrocarbons by methane-grown washed cells; type: cell-based
From the text: Methylobacter vinelandii (CRL M5Y NRRL B-11,218) was aerobically grown in a methane-containing nutrient medium in the manner described in Example 1 and the methane-grown washed cells were contacted under aerobic conditions with cyclohexane, benzene and toluene.

[11] = tested on: P(40) particulate fraction of Methylosinus sp. (CRL-15, NRRL B-11,202); test: Oxidation of n-alkenes and n-alkanes by P(40) particulate fraction; type: biochemical
[12] = tested on: P(40) particulate fraction of Methylosinus sp. (CRL-15, NRRL B-11,202); test: Stoichiometry of propylene epoxidation and methane hydroxylation by P(40) fraction; type: biochemical; settings: 5.0 μmoles substrate
Method: The particulate P(40) fraction of Methylosinus sp. (CRL-15, NRRL B-11,202) was used to determine the stoichiometry of hydroxylation and epoxidation reactions. The stoichiometry of methane or propylene-dependant NADH oxidation, oxygen consumption and product formation was approximately 1:1:1 Table XIV. This is consistent with methane or propylene oxygenation being catalyzed by a mono-oxygenase.
^a Under identical condition of reaction, the estimation of NADH
oxidized was carried out spectrophotometrically, the estimation of oxygen
consumed was measured polarographically, and estimation of product formed
was carried out by gas chromatography.

[13] = Oxidation of 2-butanol to 2-butanone by cell-free soluble extracts of C1-utilizing microbes; type: biochemical
Method: The clear supernatant contained the SADH activity. […] The reaction was started by the addition of substrate.
Catalytic activity was also assayed by fluorescence spectrophotometry.

[14] = tested on: cell-free extracts of strain ATCC-21439
Method: The reaction mixtures 3 ml (1.0 mg protein) were incubated at 30°
C. for 10 min. (exp. 1) and for 20 min. (exp. 2) in the presence of 1.0
^a Determined gas chromatographically.
^b Determined fluorescence spectrophotometrically. Endogenous
consumption of NAD was corrected.

[15] = NRRLB11, inhibitor 1 mM, 1 hour at 30° C., read-out: % Inhibition, Epoxidation
[16] = NRRLB11, inhibitor 1 mM, 1 hour at 30° C., read-out: % Inhibition, Hydroxylation
[17] = NRRLB11, read-out: Inhibition (%) of production of 2-butanone, 1 mM
[18] = purified SADH, each inhibitor 1 mM, measured spectrofluorometrically
[19] = NRRLB11, 1 h, read-out: % Inhibition, Epoxidation
[20] = NRRLB11, 1 h, read-out: % Inhibition, Hydroxylation
[21] = NRRLB11, read-out: Inhibition (%) of production of 2-butanone

## c1cnc2c(c1)ccc1cccnc12 [1,10-Phenanthroline]
[1]
  % Inhibition, Methane-Hydroxylating Activity: 90%
  % Inhibition, Propylene-Epoxidizing Activity: 93%
[2]; [15]
  inhibition at 1000 µM: 90%
[2]; [16]
  inhibition at 1000 µM: 92%
[3]; [15]
  inhibition at 1000 µM: 95%
[3]; [16]
  inhibition at 1000 µM: 95%
[4]; [15]
  inhibition at 1000 µM: 90%
[4]; [16]
  inhibition at 1000 µM: 90%
[5]; [17]
  inhibition at 1000 µM: 95%
[6]; [18]
  % inhibition of SADH activity: 95%
[7]
  inhibition of secondary alcohol dehydrogenase activity: strongly inhibited
[8]
  inhibition of the conversion of the n-alkanes to the sec. alcohols: inhibited
[9]
  inhibition of production of 2-butanone from 2-butanol by cell suspensions of the strains tested: inhibited

## NC(N)=S [Thiourea]
[1]
  % Inhibition, Methane-Hydroxylating Activity: 98%
  % Inhibition, Propylene-Epoxidizing Activity: 98%
[2]; [19]
  inhibition at 1000 µM: 100%
[2]; [20]
  inhibition at 1000 µM: 100%
[3]; [19]
  inhibition at 1000 µM: 100%
[3]; [20]
  inhibition at 1000 µM: 100%
[4]; [19]
  inhibition at 1000 µM: 100%
[4]; [20]
  inhibition at 1000 µM: 100%
[5]; [17]
  inhibition at 1000 µM: 0%
[8]
  inhibition of the conversion of the n-alkanes to the sec. alcohols: inhibited
[9]
  inhibition of production of 2-butanone from 2-butanol by cell suspensions of the strains tested: not inhibited

## O=C(O)CN(CCN(CC(=O)O)CC(=O)O)CC(=O)O [EDTA]
[5]; [21]
  inhibition at 1000 µM: 70%
[6]
  % inhibition of SADH activity: 63%

## c1ccccc1 [benzene]
[10]
  oxidative conversion rate of cyclic hydrocarbon (cyclohexane to cyclohexanol): no oxidative conversion was detected

## C [Methane]
[11]; substrate competition, gas phase as labelled
  Propylene Oxide Produced: 0 μmoles/hr/mg. protein
[11]; substrate oxidized to its epoxide or alcohol, 30° C.
  Rate of Product Formation: 4.8 μ moles/hr/mg of protein
[12]
  NADH Oxidized: 4.8 µmol
  O2 Consumed: 4.6 µmol
  Product formed: 4.2 µmol
[3]; cell suspension of methane-grown strain
  inhibition of epoxidation of propylene to propylene oxide in the presence of methane: 50%

## NC(=O)c1ccc[n+]([C@@H]2O[C@H](COP(=O)([O-])OP(=O)(O)OC[C@H]3O[C@@H](n4cnc5c(N)ncnc54)[C@H](O)[C@@H]3O)[C@@H](O)[C@H]2O)c1 [NAD, Nicotinamide adenine dinucleotide]
[13]
  cofactor for oxidation of secondary alcohols in the cell-free system: requirement; also recorded: required
[6]; Line-Weaver-Burk plot, read-out: Michaelis constants (Km) of SADH
  Km: 11 µM
[6]; pure SADH, read-out: Km values
  Km: 11 µM
[7]
  electron acceptor for the purified enzyme: required

## c1ccc(-c2ccccn2)nc1 [α,α -Bipyridyl, α,α-bipyridyl]
[1]
  % Inhibition, Methane-Hydroxylating Activity: 99%
  % Inhibition, Propylene-Epoxidizing Activity: 98%
[2]; [19]
  inhibition at 1000 µM: 100%
[2]; [20]
  inhibition at 1000 µM: 90%
[3]; [19]
  inhibition at 1000 µM: 100%
[3]; [20]
  inhibition at 1000 µM: 100%
[4]; [19]
  inhibition at 1000 µM: 100%
[4]; [20]
  inhibition at 1000 µM: 100%
[5]; [17]
  inhibition at 1000 µM: 75%
[6]; [18]
  % inhibition of SADH activity: 70%
[8]
  inhibition of the conversion of the n-alkanes to the sec. alcohols: inhibited
[9]
  inhibition of production of 2-butanone from 2-butanol by cell suspensions of the strains tested: inhibited

## C1CCCCC1 [Cyclohexane]
[10]
  oxidative conversion rate of cyclic hydrocarbon (cyclohexane to cyclohexanol): 1.5 μmoles/2 hr./mg. protein

## [N-]=[N+]=[N-] [Sodium azide]
[5]; [21]
  inhibition at 1000 µM: 10%
[6]; [18]
  % inhibition of SADH activity: 10%

## CCC(C)O (stereo not drawn) [2-butanol]
[6]
  substrate specificity of purified SADH: highest
[6]; read-out: Km values
  Km: 250 µM
[7]
  NAD^+ Reduced: 5.9 µmol
  Product formed: 5.7 µmol
  oxidation by the purified secondary alcohol dehydrogenase: catalyzed the oxidation
[14]; experiment 1, 10 min.
  2-Butanol Consumed: 260 nmol
[14]; experiment 2, 20 min.
  2-Butanol Consumed: 530 nmol
  NAD Consumed: 540 nmol

## CCC(C)=O [2-butanone]
[6]
  inhibition of SADH activity by the product: inhibited
[9]; 8 μmoles 2-butanone added to viable cell suspensions
  product inhibition of 2-butanone production: no product inhibition

## Cc1ccccc1 [toluene]
[10]
  oxidative conversion rate of cyclic hydrocarbon (cyclohexane to cyclohexanol): no oxidative conversion was detected
